SMILES strings stand for the structures.

A word on the melting point: it is the temperature, or range, at which the solid turns liquid.

In turn, `CCC(=O)C1=C(O)CC(c2cc3c(cc2[N+](=O)[O-])OCO3)CC1=O` (stereo unspecified) yielded a melting point of 139 °C. In the case of `CC(C)Cn1c(=O)n(C)c(=O)c2c(C/C=C/CC(=O)O)n(Cc3cccc4ccccc34)cc21` it was 176 to 180 °C. In the case of `Cc1ccccc1NN=C(Cl)c1ccccc1` it was 64.5 to 66 °C; in that of `CCOC(=O)c1c(C(F)(F)F)nc(C(F)(F)Cl)c(C(=O)OC)c1Cl`, 57.5 to 59.5 °C; in that of `CCOC(=O)c1c(N2CCN(C(=O)c3cccs3)CC2)c2cccnc2n(CC(=O)c2ccccc2)c1=O`, 115 °C. In the case of `CCOC(=O)c1ccc(N=C(Nc2ccc(C(=O)OCC)cc2)c2ccccc2Cl)cc1` it was 98 to 108 °C; in that of `c1ccc(C2=Nc3ccccc3-n3ccc4cccc2c43)cc1`, 128 to 136 °C; in that of `COc1c2c(cc3c1OCO3)C(O)CN(C)C2` (stereo unspecified), 151 to 153 °C. `CN(C)C=NC(=S)Nc1ccccc1` came in with a melting point of 139 to 143 °C. In the case of `CCON=Cc1cc(-n2c(=O)cc(C(F)(F)F)[nH]c2=O)c(Cl)cc1Cl` it was 205 to 209 °C. `CC(C)(C)OC(=O)C[C@H](NC(=O)c1cccc(NC(=O)Cc2ccc(C(N)=S)cc2)c1)C(=O)N[C@@H](Cc1ccccc1)C(=O)OC(C)(C)C` yielded a melting point of 99 °C. For the compound `CCn1ncc2c3[nH]c4ccnn4c(=O)c3cnc21`, the melting point is over 300 °C.

As for `COc1ccc(CCN(C)CCc2ccc(NC(=O)c3cccc4c(=O)c5cccc(OC)c5[nH]c34)cc2)cc1OC`, the melting point is 179 °C.

Compound `CC(C)(N)c1ccc(-c2nc(Nc3ccc(CCn4ccnc4)cc3)ncc2C#N)cc1` returned a melting point of 184 °C. Compound `CCOC(=O)c1c(-c2ccc(F)cc2)cc(-c2ccccc2)n1C(C)C` displayed a melting point of 97 to 100 °C. In the case of `C[C@@H](Oc1cncc(C(=O)Nc2ccc(C#N)cc2)c1)c1ccc(F)cc1` it was 151 to 152 °C. For `COP(=O)(NC1C(=O)N2C(C(=O)OCc3ccc([N+](=O)[O-])cc3)=C(C=CN3CCCCC3)CSC12)OC` (stereo unspecified) the value was 220 to 221 °C; for `CC1Cc2cccc(-c3cccc4ccccc34)c2C1=O` (stereo unspecified), 104 to 105 °C. In turn, `COc1ccc(F)cc1N1CCN([C@H]2CC[C@@H](c3c[nH]c4ccc(F)cc43)CC2)CC1` had a melting point of 152 to 153 °C. Compound `CN1CCCC1=NC(=O)Nc1cccc(Cl)c1` came in with a melting point of 135 to 136 °C. For `CC#CCOc1cc(-n2nnn(CCC)c2=O)c(Cl)cc1Cl` the value was 58 to 60 °C; for `CCOC(=O)CCCCC(=O)OC[C@@H]1CC(c2ccc(-c3ccc(N4C[C@H](Cn5ccnn5)OC4=O)cc3F)cn2)=NO1`, 88 °C; for `COc1ccc(Cn2c(-c3cc(OC)c(OC)c(OC)c3)nc3ccccc32)cc1`, 110 °C. In turn, `O=C(Nc1ccc(Oc2ccnc(N3CCCCC3)n2)c2ccccc12)c1cc(F)cc(N2CCOCC2)c1` came in with a melting point of 190 to 191 °C. `O=C(CCl)NCc1c(O)ccc2c1CCCC2=O`: the melting point was in the range of 196 to 199 °C. In the case of `COC(=S)N=C(N)SC`, the melting point was in the range of 75 to 76 °C.

In the case of `NC(=O)c1cc(Oc2ccc(C(F)(F)F)cc2Cl)ccc1[N+](=O)[O-]`, the melting point was 139 to 143 °C. Regarding `CCn1c(=O)sc2cc(N3C[C@H](C(=O)NC)OC3=O)ccc21`, the melting point was in the range of 227 to 229 °C. `CCOC(=O)C(C)(C)NC(=O)c1nnc2ccc(NCCCN3CCC(OC(c4ccccc4)c4ccccc4)CC3)nn12` yielded a melting point of 165 to 167 °C. In the case of `O=C1N(CCCCN2CCN(C3=NS(=O)(=O)c4ccccc43)CC2)CSC12CCCC2` it was 137 to 140 °C; in that of `O=Cc1cc2n(c1)CCc1ccccc1C2=O`, 135 to 136 °C; in that of `Cc1c(-c2ccncc2)[nH]c2c1C(=O)CCC2`, 248 to 249 °C. In the case of `COc1ccc(S(=O)(=O)N2C(=O)C(N)(c3ccccc3)c3cc(Cl)ccc32)c(OC)c1` (stereo unspecified) it was 108 to 110 °C; in that of `Nc1nc(=O)n(CCCN2CCN(C(c3ccccc3)c3ccccc3)CC2)c2ccccc12`, 190 to 196 °C. In turn, `O=C(Cc1ccccc1)Nc1ccccc1OCc1ccccc1` showed a melting point of 96 to 98 °C. For the compound `CC(C)(C)c1cc(CCc2ccccc2NC(=O)NC2CCN(CCc3ccccc3)CC2)cc(C(C)(C)C)c1O`, the melting point lay within 175 to 176 °C.

In turn, `COc1cc(OC)c(C(=O)C=Cc2ccc(SC)cc2)c(OP(=O)(O)O)c1` came in with a melting point of 63 to 66 °C. In turn, `Cc1ccc(-c2ncncc2C#N)cc1` had a melting point of 127 to 128 °C. Take `O=C1C(=O)c2ccccc2C2=C1SCC1(CCN(C(=O)c3cn4c5c(cccc35)CCC4)CC1)O2`: the melting point is 265 to 267 °C. As for `C1=CC[C@@]2(Cc3ccccc3)CN(Cc3ccccc3)C[C@H]2C1` (relative stereo), the melting point was 142 to 144 °C. For the compound `O=C1c2ccccc2C(=O)N1CCCC(c1ccc(F)cc1)c1ccc(F)cc1`, the melting point lay in the range of 69 to 70 °C. For `CCOC(=O)C=C1CC(c2cccc(C3(c4ccc(OC(F)F)cc4)N=C(N)N(C)C3=O)c2)C1` (stereo unspecified), the melting point was 78 to 80 °C. `COc1ccc(C2CC(=O)N(C(=O)c3cncc(Br)c3)N2C)cc1OC1CCCC1` (stereo unspecified): the melting point lay within 139 to 141 °C. The compound `CCOC(=O)c1cc(=O)c2ccccc2n1C` showed a melting point of 114 to 115 °C. With `CN(Cc1ccc(S(C)=O)s1)C(=O)C12CC3CC(CC(C3)C1)C2` (stereo unspecified), the melting point lay in the range of 91.5 to 93.5 °C. For `COc1nc(=O)n(-c2ccc(Cl)cc2C)c(=O)[nH]1`, the melting point was 193 to 195 °C. Compound `CC(=O)SCC(Cc1ccccc1)C(=O)Nc1cc(C(=O)O)cc(C(C)C)c1` (stereo unspecified) showed a melting point of 205 to 206 °C.

Compound `CCOC(=O)[C@@H]1C[C@H](OS(=O)(=O)c2ccc(C)cc2)CN1C(=O)OCc1ccccc1` came in with a melting point of 91 to 92 °C. The compound `CC(=O)C(CC(C)C)NC(=O)CCOc1ccc([N+](=O)[O-])cc1` (stereo unspecified) registered a melting point of 101 to 102 °C. In the case of `S=c1[nH]ccn1C1CCCc2ccccc21` (stereo unspecified) it was 188 to 189 °C; in that of `CC(C)C[C@H](NC(=O)OCC1CCCCC1)C(=O)N[C@@H](C(C)C)[C@H](O)c1c(-c2ccccc2)c1=O`, 148 to 149 °C; in that of `Nc1ccc(C(=O)N2Cc3cccn3Cc3ccccc32)c(Cl)c1`, 210 to 212 °C. In the case of `Cc1cc(Br)c2nc(Cl)ccc2c1` it was 107 to 108 °C; in that of `CC(=C1SC(=O)NC1=O)c1ccc(OCCOc2c(-c3ccc(F)c(F)c3)n(C)c3cc(Cl)ccc3c2=O)c(Cl)c1`, 140 to 142 °C; in that of `Cc1cc2c(-c3ccccc3Cl)c(C(=O)O)c(=O)n(C)c2cc1C`, 251 to 252 °C.

In turn, `O=C(NCCOc1ccc(CC(Oc2cc(F)c(F)c(F)c2)C(=O)O)cc1)c1ccc(-c2ccccn2)cc1` (stereo unspecified) returned a melting point of 144 to 146 °C. In the case of `COc1cccc(Oc2c(Cl)ncnc2NS(=O)(=O)c2ccc(C(C)(C)C)cc2)c1` it was 109 to 110 °C; in that of `C=CC1(CC(N)=O)CC(C)(C)CC(C)(C)C1`, 44 to 46 °C; in that of `CCOC(=O)Cc1csc(NC(=O)C(F)(F)F)n1`, 119 to 121 °C.

`[N-]=[N+]=CC(=O)CC1CCCCC1` yielded a melting point of 58 to 62 °C. For `COc1ccc(C(=O)c2ccccc2C)cc1C`, the melting point lay within 72 to 73 °C.

`CCCC(=O)c1cc2nc(CO)n(C)c2cc1C` returned a melting point of 142 °C. In the case of `CCCCC(CC)COCCCN1C(C)=CC(=C(C#N)C(=O)OCC(CC)CCCC)C=C1C` (stereo unspecified) it was 69 to 70 °C. With `O=C(CCC(=O)N1CCC[C@H]1C(=O)O)[C@H](Cc1ccccc1)OCc1ccccc1`, the melting point lay in the range of 114 to 115 °C.

`NC(=NCCCc1c[nH]cn1)N(CCN(Cc1ccc(Cl)cc1)c1ccccn1)C(=O)c1ccccc1` registered a melting point of 166 to 167 °C.

In the case of `O=C(O)C1=Cc2cc(-c3ccc(Cl)cc3)ccc2OC1C(F)(F)F` (stereo unspecified), the melting point fell in the range of 212 to 213 °C. In the case of `CN1CCN(C2=Nc3cc(Cl)ccc3Oc3cscc32)CC1` it was 180 to 182 °C; in that of `COc1ccc(C(=O)c2cccc(NC(=O)c3ccn4c3CSC4c3cccnc3)c2)cc1` (stereo unspecified), 140 °C; in that of `CCc1cc(C(C)=O)c(OC)cc1OCc1cccc(C#N)c1`, 124 to 126 °C.

In turn, `Cc1nnc(-c2ccc3occ(-c4ccc(N(C)C)cc4)c3c2)o1` returned a melting point of 205 to 206 °C. For `CCNC1=NN(c2cccc(C(F)(F)F)c2)CC1` the value was 172 °C; for `Cc1cc(N2CCN(Cc3ccc(F)cc3)C2=O)sc1C(=O)NCc1cccs1`, 128 to 131 °C; for `C#Cc1cc(C)c(Oc2ccc(N)c(Nc3ccc(C#N)cc3)n2)c(C)c1`, 79 to 82 °C. On to `c1ccc(N2c3ccccc3[C@@H]3CN(CC4CCC4)CC[C@H]32)cc1`, for which the melting point was 76.5 to 77 °C.

The compound `C=CCN1Cc2cscc2Nc2ccccc21` displayed a melting point of 67 to 69 °C. For `CCOc1cc(O)c(C(=O)C=Cc2ccc(OC)cc2)c(OC)c1` the value was 122 °C; for `Cn1ncnc1COc1nn2c(-c3ccccc3F)nncc2c1Br`, 215 to 219 °C. `C=CC(=O)N(CCCCCC)C[C@H](O)[C@@H](O)[C@H](O)[C@H](O)CO`: the melting point lay within 86 to 88 °C. Regarding `O=C(CN1CCN(c2ccccc2)CC1)N1CCC(CNCc2ccco2)(c2cccc(C(F)(F)F)c2)CC1`, the melting point came to 119 °C. `CC1OC(c2ccccc2Cl)c2cc(Cl)ccc2NC1=O` (stereo unspecified) had a melting point of 214 to 215 °C.

On to `CN1CCc2c(sc(N)c2C(=O)c2ccccc2)C1`, for which the melting point is 164 to 165 °C. For the compound `O=C1N=C(N2CCOCC2)SC1c1cccc(-c2ccc(O)c(-c3ccccc3)c2)n1` (stereo unspecified), the melting point lay in the range of 292 to 295 °C. Compound `COc1ccc(S(=O)(=O)NCCc2ccc(C(=O)O)cc2)cc1` registered a melting point of 177 to 178 °C. `O=C1c2ccccc2C(=O)c2[nH]c(-c3ccccc3)nc21` yielded a melting point of over 260 °C.

Regarding `CCc1cn(C)c2cc(-c3ccccc3Cl)c3c(c12)C(=O)NC3=O`, the melting point fell in the range of 230 to 233 °C. The compound `C[C@H]1Cn2c(=O)[nH]c3cc(N)cc(c32)CN1CC1CC1` gave a melting point of 189 °C.

Values taken from a melting point compilation (Tetko et al.; mined from patent text by program, amines drawn as free bases though some values may be those of a salt).
